Our source for the relative viability values is the supplement of paper PMC10307832.

The test system of the first experiment is NCI-H3122. Nature of the experiment: relative viability (nuclei count vs DMSO), 5 days (fraction); higher = more cells survive. The following applies: first compound 0.08 µM. The procedure, abridged: (§1)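 Nuclei were stained with Hoechst during a one-step fixation (final 0.05% Triton X-100, 1% formaldehyde, 1 ug/ml Hoechst) carried out 5 days after dosing, then counted on 4× images. The cells, lung cancer lines in 1536-well plates, had been dosed by pin tool the day after seeding with one drug alone or a fixed anchor-drug dose plus five library-drug doses (not always all listed) in √10 steps. Relative viability is the nuclei count in treated wells divided by that in vehicle wells, and each value is the median of duplicate plates.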
For `CCCCCCCCCCCC1=C(O)C(=O)C=C(O)C1=O` [Embelin] + N=C(N)NC(=N)NCCc1ccccc1 [Phenformin] (partner 250 µM), the relative viability worked out at 0.388.
As for `CCCCCCCCCCCC1=C(O)C(=O)C=C(O)C1=O` [Embelin] + CCNC(=O)c1noc(-c2cc(C(C)C)c(O)cc2O)c1-c1ccc(CN2CCOCC2)cc1 [Luminespib] (partner 0.01 µM), the relative viability worked out at 0.068.
The same measure, in the same setting: with `CCCCCCCCCCCC1=C(O)C(=O)C=C(O)C1=O` [Embelin] + Cc1nc(Nc2ncc(C(=O)Nc3c(C)cccc3Cl)s2)cc(N2CCN(CCO)CC2)n1 [Dasatinib] (partner 0.075 µM) the figure was 0.823.
As for `CCCCCCCCCCCC1=C(O)C(=O)C=C(O)C1=O` [Embelin] + NC(=O)Nc1cc(-c2cccc(F)c2)sc1C(=O)N[C@H]1CCCNC1 [AZD7762] (partner 0.2 µM), the relative viability was found to be 0.946.
`CCCCCCCCCCCC1=C(O)C(=O)C=C(O)C1=O` [Embelin] + CC(=O)c1c(C)c2cnc(Nc3ccc(N4CCNCC4)cn3)nc2n(C2CCCC2)c1=O [Palbociclib] (partner 0.5 µM) yielded a relative viability of 0.18.

The experiment is the same for the next values; noted with them: first compound 0.8 µM.
In turn, `CCCCCCCCCCCC1=C(O)C(=O)C=C(O)C1=O` [Embelin] + N=C(N)NC(=N)NCCc1ccccc1 [Phenformin] (partner 250 µM) had a relative viability of 0.415.
Compound `CCCCCCCCCCCC1=C(O)C(=O)C=C(O)C1=O` [Embelin] + CCNC(=O)c1noc(-c2cc(C(C)C)c(O)cc2O)c1-c1ccc(CN2CCOCC2)cc1 [Luminespib] (partner 0.01 µM) registered a relative viability of 0.0941.
For the compound `CCCCCCCCCCCC1=C(O)C(=O)C=C(O)C1=O` [Embelin] + Cc1nc(Nc2ncc(C(=O)Nc3c(C)cccc3Cl)s2)cc(N2CCN(CCO)CC2)n1 [Dasatinib] (partner 0.075 µM), the relative viability was found to be 0.922.
The same measure, in the same setting: the same measure for `CCCCCCCCCCCC1=C(O)C(=O)C=C(O)C1=O` [Embelin] + NC(=O)Nc1cc(-c2cccc(F)c2)sc1C(=O)N[C@H]1CCCNC1 [AZD7762] (partner 0.2 µM): 1.06.
As for `CCCCCCCCCCCC1=C(O)C(=O)C=C(O)C1=O` [Embelin] + CC(=O)c1c(C)c2cnc(Nc3ccc(N4CCNCC4)cn3)nc2n(C2CCCC2)c1=O [Palbociclib] (partner 0.5 µM), the relative viability came to 0.236.

The same experiment, now with this note: first compound 2.53 µM.
On to `CCCCCCCCCCCC1=C(O)C(=O)C=C(O)C1=O` [Embelin] + N=C(N)NC(=N)NCCc1ccccc1 [Phenformin] (partner 250 µM), for which the relative viability stood at 0.384.
Still for that read-out and setting: with `CCCCCCCCCCCC1=C(O)C(=O)C=C(O)C1=O` [Embelin] + CCNC(=O)c1noc(-c2cc(C(C)C)c(O)cc2O)c1-c1ccc(CN2CCOCC2)cc1 [Luminespib] (partner 0.01 µM) the figure was 0.0799; with `CCCCCCCCCCCC1=C(O)C(=O)C=C(O)C1=O` [Embelin] + Cc1nc(Nc2ncc(C(=O)Nc3c(C)cccc3Cl)s2)cc(N2CCN(CCO)CC2)n1 [Dasatinib] (partner 0.075 µM), 0.853.
As for `CCCCCCCCCCCC1=C(O)C(=O)C=C(O)C1=O` [Embelin] + NC(=O)Nc1cc(-c2cccc(F)c2)sc1C(=O)N[C@H]1CCCNC1 [AZD7762] (partner 0.2 µM), the relative viability was determined as 1.06.
`CCCCCCCCCCCC1=C(O)C(=O)C=C(O)C1=O` [Embelin] + CC(=O)c1c(C)c2cnc(Nc3ccc(N4CCNCC4)cn3)nc2n(C2CCCC2)c1=O [Palbociclib] (partner 0.5 µM) yielded a relative viability of 0.175.

The same experiment, now with this note: first compound 8 µM.
In turn, `CCCCCCCCCCCC1=C(O)C(=O)C=C(O)C1=O` [Embelin] + N=C(N)NC(=N)NCCc1ccccc1 [Phenformin] (partner 250 µM) returned a relative viability of 0.282.
On the same count and under the same terms, with `CCCCCCCCCCCC1=C(O)C(=O)C=C(O)C1=O` [Embelin] + CCNC(=O)c1noc(-c2cc(C(C)C)c(O)cc2O)c1-c1ccc(CN2CCOCC2)cc1 [Luminespib] (partner 0.01 µM) the figure was 0.0894.
Compound `CCCCCCCCCCCC1=C(O)C(=O)C=C(O)C1=O` [Embelin] + Cc1nc(Nc2ncc(C(=O)Nc3c(C)cccc3Cl)s2)cc(N2CCN(CCO)CC2)n1 [Dasatinib] (partner 0.075 µM) registered a relative viability of 0.829.
As to `CCCCCCCCCCCC1=C(O)C(=O)C=C(O)C1=O` [Embelin] + NC(=O)Nc1cc(-c2cccc(F)c2)sc1C(=O)N[C@H]1CCCNC1 [AZD7762] (partner 0.2 µM), the relative viability came to 1.01.
On the same count and under the same terms, with `CCCCCCCCCCCC1=C(O)C(=O)C=C(O)C1=O` [Embelin] + CC(=O)c1c(C)c2cnc(Nc3ccc(N4CCNCC4)cn3)nc2n(C2CCCC2)c1=O [Palbociclib] (partner 0.5 µM) the figure was 0.186.

In a further experiment the test system is NCI-H661. Described as above. The following applies: first compound 0.08 µM. In a few lines:
as §1
The compound `CCCCCCCCCCCC1=C(O)C(=O)C=C(O)C1=O` [Embelin] + N=C(N)NC(=N)NCCc1ccccc1 [Phenformin] (partner 250 µM) yielded a relative viability of 0.287.
Same read-out and setting: the same measure for `CCCCCCCCCCCC1=C(O)C(=O)C=C(O)C1=O` [Embelin] + CCNC(=O)c1noc(-c2cc(C(C)C)c(O)cc2O)c1-c1ccc(CN2CCOCC2)cc1 [Luminespib] (partner 0.01 µM): 0.924; for `CCCCCCCCCCCC1=C(O)C(=O)C=C(O)C1=O` [Embelin] + Cc1nc(Nc2ncc(C(=O)Nc3c(C)cccc3Cl)s2)cc(N2CCN(CCO)CC2)n1 [Dasatinib] (partner 0.075 µM): 0.852; for `CCCCCCCCCCCC1=C(O)C(=O)C=C(O)C1=O` [Embelin] + CC(=O)c1c(C)c2cnc(Nc3ccc(N4CCNCC4)cn3)nc2n(C2CCCC2)c1=O [Palbociclib] (partner 0.5 µM): 0.405.

The experiment is the same for the next values; noted with them: first compound 0.8 µM.
As for `CCCCCCCCCCCC1=C(O)C(=O)C=C(O)C1=O` [Embelin] + N=C(N)NC(=N)NCCc1ccccc1 [Phenformin] (partner 250 µM), the relative viability stood at 0.312.
Regarding `CCCCCCCCCCCC1=C(O)C(=O)C=C(O)C1=O` [Embelin] + CCNC(=O)c1noc(-c2cc(C(C)C)c(O)cc2O)c1-c1ccc(CN2CCOCC2)cc1 [Luminespib] (partner 0.01 µM), the relative viability was found to be 1.
Still for that read-out and setting: with `CCCCCCCCCCCC1=C(O)C(=O)C=C(O)C1=O` [Embelin] + Cc1nc(Nc2ncc(C(=O)Nc3c(C)cccc3Cl)s2)cc(N2CCN(CCO)CC2)n1 [Dasatinib] (partner 0.075 µM) the figure was 1.08.
